Laboratory results reported in US20070009593A1, “Methods of treating cancer” (Indianan University Advanced Research, priority 2002, published 2007).
Read-outs that look alike come from different tables or passages of the source.

Columns and labels:
[1] = tested on: HUVEC; test: HUVEC cell spreading assay; assay type: cell-based, human; details: 40 μM
Protocol: Cells were fixed in 3.7% formaldehyde in PBS, blocked and stained with Oregon-green phalloidin 514 (Molecular Probes), and then digitally photographed using a Zeiss inverted fluorescence microscope equipped with a CCD camera. Cell areas were measured on the digital images using the Spot program (Diagnostic Imaging).

[2] = tested on: MDA-MD-435 cells; test: proliferation assay, MTT, 24 hours; assay type: cell-based; details: Homo sapiens, 24 hours exposure, averaging 2 experiments
Protocol: Proliferation assays were done by plating cells in a 96 well plate at […] for the 231 cells and 5×10^3 cells per well for the 435 cells. The cells were allowed to attach and grow for 24 hours. […] The cells were allowed to grow for 24 hours and the number of viable cells was measured by MTT assay.

[3] = tested on: Caco 2 2-3 (calpastatin over-expressing); test: MTT assay, 96 well plate, 48 h; assay type: cell-based; details: Homo sapiens, Caco-2, read-out: Ritonavir IC50, 2-3 line
[4] = ritonavir serum levels in mice
[5] = tested on: MDA-MB-231 human breast cancer tumors; test: MDA-MB-231 xenograft model; assay type: in vivo, nude mice; details: 40 mg/kg
Protocol: (Tumor size was measured by the method volume in cubic mm=length×[width]squared/2.) The tumors in this preliminary experiment took 7 weeks to grow and represent established tumors. […] FIG. 6B confirms the finding of 6A, showing that all three of the control tumors progressed. […] FIG. 6C depicts weight of the tumor when measured at days 1, 6, 9, and 13. FIG. 6D depicts weight of the animal when measured at days 1, 3, 6, 10, and 13.

[6] = molecular target: T1, chymotryptic active site of the proteasome (ZGGL-AMC cleavage) (Homo sapiens, UniProt P28074); test: fluorometric assay of ZGGL-AMC cleavage by Caco 2 cells; assay type: cell-based; details: for ZGGL-AMC cleavage: Caco 2 cells (DMSO control 0.287)
T1 construct: Fluorometric assay of ZGGL-AMC cleavage by Caco 2 cells; endogenous in cells; host or cells: Caco 2

[7] = tested on: calpain cleavage of α-fodrin; test: NFF score, IHC with PP1 antibody, ritonavir treated mice; assay type: in vivo; details: 10 days
Excerpt: Differentiation of the stratum spinosum of tongue epithelium was affected, with a reduction of nuclear involution as well as an increase in the keratinized layer (FIGS. 5A-5C). […] Previous observations of the proliferative rate of tongue compared to skin in mice indicate that tongue is a more proliferative epithelium (Hume, W. J. Cell Tissue Kinet. 19:195-203 (1986)).
The antiserum specific for the calpain-dependent α-fodrin cleavage, PP1, was used at 1:100 dilution. Competition with specific peptide blocked nuclear staining. The size bar is […]. […] Arrows indicate basal layer nuclei. The vertical bar indicates maximum thickness of the keratinized layer in each image.

[8] = tested on: MDA-436LXSN (vector control line); test: MTT assay, breast cancer line; assay type: cell-based; details: Homo sapiens, read-out: Ritonavir IC50
[9] = tested on: H522; test: MTT assay, NSCLC cell line; assay type: cell-based; details: Homo sapiens
[10] = tested on: H460; test: MTT assay, NSCLC cell line; assay type: cell-based; details: Homo sapiens
[11] = in vivo; details: mouse, ip
[12] = tested on: MDA-436; test: MTT assay, breast cancer line; assay type: cell-based; details: Homo sapiens, read-out: Ritonavir IC50; MDA-436 parental line
Protocol: (§1) The drugs were tested together at the ratio of their IC50 as single agents, over a 4-log range of concentrations. […] Viable cell number was measured by MTT assay.

[13] = tested on: SKBR-3; test: MTT assay, breast cancer line; assay type: cell-based; details: Homo sapiens, SK-BR-3, read-out: Ritonavir IC50
Protocol: as §1

[14] = tested on: Surface EGFR; test: surface EGFR in breast cancer lines under ritonavir; assay type: cell-based, human; parameters: reference not given here
[15] = tested on: 436 with expression of IκB α super-repressor of NF-κB; test: clonogenic assay (LD50), ritonavir sensitivity; assay type: cell-based, human; details: 436 expressing IκB α super-repressor of NF-κB
Excerpt: This finding is consistent with the implication of signaling pathways in the resistance of breast cancer cell lines to chemotherapy (Patel et al., Oncogene 19:4159-4169).
We note that the IC50 is derived from MTT assays, while the LD50 is derived from clonogenic assays.

[16] = tested on: Caco 2 0.5-11 (calpastatin over-expressing); test: MTT assay, 96 well plate, 48 h; assay type: cell-based; details: Homo sapiens, Caco-2, read-out: Ritonavir IC50, 0.5-11 line (calpain activity reduction of 80%)
[17] = tested on: EGF receptor; test: EGF receptor expression in Caco 2 cells, Western blot; assay type: cell-based; details: 20 μM, 24 hours, confluent Caco 2
Protocol: The medium was not changed. After 24 hours, the cells were harvested by Triton X-100 lysis, and Western blot analysis was performed on the supernatant, which contains solubilized EGF receptor.

[18] = tested on: Caco 2 C9 control (pRC/CMV vector); test: MTT assay, 96 well plate, 48 h; assay type: cell-based; details: Caco-2, 48 h, read-out: Ritonavir IC50
[19] = tested on: breast cancer lines; test: Annexin V/propidium iodide flow cytometry; assay type: cell-based, human; details: at the ritonavir IC50 and IC80
[20] = tested on: MDA-436IκBSR (super-repressor of NF-κB over-expressed); test: MTT assay, breast cancer line; assay type: cell-based; details: Homo sapiens, read-out: Ritonavir IC50
[21] = tested on: Caco 2 cells; test: proliferation / combination assay in colon cancer cells; assay type: cell-based; details: Homo sapiens
[22] = tested on: breast cancer lines; test: propidium iodide flow cytometry; assay type: cell-based, human; details: at the IC50 concentration of ritonavir

Compound: CC(C)c1nc(CN(C)C(=O)N[C@H](C(=O)N[C@@H](Cc2ccccc2)C[C@H](O)[C@H](Cc2ccccc2)NC(=O)OCc2cncs2)C(C)C)cs1 [Ritonavir, ritonavir]
- reduction of cell area ([1]; 1 hour of spreading): 15%
- cell area ([1]; 1 hour spreading on fibronectin): 4100±160 μm^2
- IC50 [2]: ~150 µM
- IC50 [3]: 20 µM
- trough drug levels ([4]; Tween 80, ip injection): less than 0.1 μM
- peak ritonavir concentrations ([4]; oral gavage, Norvir liquid, 40 mg/kg body weight): less than 1 μM
- growth rate of tumors ([5]; nude mice, FIG. 6C): decrease the growth rate of tumors
- weight of the animal ([5]; nude mice, FIG. 6D): without causing wasting of the mice
- tumor response ([5]; three established tumors, FIG. 6A): two tumors of three exhibited stable disease
- ZGGL-AMC cleavage ([6]; 6 μM): 0.432 pmol·s^1− 10^6 cells
- ZGGL-AMC cleavage ([6]; 12 μM): 0.412 pmol·s^1− 10^6 cells
- ZGGL-AMC cleavage ([6]; 24 μM): 0.337 pmol·s^1− 10^6 cells
- ZGGL-AMC cleavage ([6]; 60 μM): 0.409 pmol·s^1− 10^6 cells
- effect on ZGGL-AMC cleavage ([6]; Caco 2 cells): does not block cleavage
- NFF score ([7]; tongue basal cell layer, 12 μM peak): 34%
- NFF score ([7]; tongue basal cell layer, 67 μM peak): 1%
- NFF score ([7]; ventral skin basal cell layer, 12 μM peak): 27%
- NFF score ([7]; ventral skin basal cell layer, 67 μM peak): 17%
- IC50 [8]: 42 µM
- IC50 ([9]; NCI-H522): 42.5 µM
- IC80 ([9]; NCI-H522, single agent): 90 µM
- IC50 ([10]; NCI-H460): 47.5 µM
- IC80 ([10]; NCI-H460, single agent): 100 µM
- half-life [11]: < 3 h
- IC50 [12]: 40 µM
- IC50 [13]: 60 µM
- Surface EGFR (Ritonavir) ([14]; MCF7, ritonavir treatment): 1
- Surface EGFR (Ritonavir) ([14]; MDA-231, ritonavir treatment): 0.5
- Surface EGFR (Ritonavir) ([14]; MDA-436, ritonavir treatment): 0.5
- Surface EGFR (Ritonavir) ([14]; SKBR-3, ritonavir treatment): 0.36
- Surface EGFR (Ritonavir) ([14]; T47D, ritonavir treatment): 1
- LD50 [15]: 40 µM
- IC50 [16]: 15 µM
- EGF receptor down regulated [17]: 20%
- IC50 [18]: 30 µM
- apoptosis [19]: increased apoptosis
- IC50 [20]: 26 µM
- IC50 ([21]; Caco-2, 48 h, read-out: IC50 (50% inhibition of proliferation)): 30 µM
- IC50 ([21]; Caco 2, single agent, read-out: IC50): 45 µM
- cell cycle [22]: induces cell cycle arrest
